Experimental data taken from patent US8815946B2, “Inhibition of proliferation and fibrotic response of activated corneal stromal cells” (University of Pittsburgh—of the Commonwealth System of …, priority 2008, dated 2014).
Entries after “also recorded” stand apart in the source; their conditions may differ.

How the values were obtained:
[1] = tested on: alpha-smooth muscle actin; experiment: Western blot of TGF-β1 activated rabbit corneal keratocytes: alpha-smooth muscle actin; assay type: cell-based; settings: TGF-β1 (10 ng/ml)+1% FBS, two days, compared to controls with no treatment, listed as EP
Method: FIGS. 19A and 19B. Western blot analyses: Rabbit corneal keratocytes were isolated and cultured in serum-free DMEM/F12 into 60 mm tissue culture dishes. After 24 hrs of incubation, the media were replaced with DMEM/F12 medium containing TGF-β1(10 ng/ml)+1% FBS without (control) or with EP or EP-derivatives for two days. The cells were extracted in RIPA buffer and the extracts containing 5 μg of total proteins were loaded per lane for Western blot analysis.
Keratocytes or fibroblasts grown under different culture conditions were extracted in RIPA buffer (9.1 mM dibasic sodium phosphate, 1.7 mM monobasic sodium phosphate, 150 mM NaCl, pH, 7.4, 1% Nonidet P-40, 0.5% sodium deoxycholate, 0.1% SDS, 0.03 TIU/mL aprotinin, 1 mM sodium orthovanadate, and 100 μg/mL phenylmethylsulfonyl fluoride (PMSF)). Aliquots of cell extracts containing 50 or 100 μg protein were subjected to SDS-PAGE. Protein bands on SDS-PAGE were electrophoretically transferred to IMMOBILON-P™ membrane (Millipore Corp., Bedford, Mass.), stained with 0.1% Coomassie blue 250 in 40% methanol/1% acetic acid for 1 minute, destained one to three times with 50% methanol/1% acetic acid, scanned for densitometric comparisons of relative concentrations of proteins per lane, destained with methanol, and subjected to Western blot analysis. Immunoreactive bands were detected using chemiluminescence Western chemiluminescence reagents.
As described in Example 1, corneal stromal cells were isolated from rabbit corneas and cultured using the same procedures. The keratocytes in serum free media were treated with b-FGF (40 ng/ml)+HS (5 μg/ml) with or without 15 mM EP or 1, 2.5 or 5 mM following EP derivatives: 2-oxopropionic acid 3-methoxyphenyl ester, 2-oxopropionic acid 2-ethoxyethyl ester, 2-oxopropionic acid 2-chloroethyl ester, 2-oxopropionic acid isopropyl ester, 2-oxopropionic acid butyl ester, 2-oxopropionic acid p-tolyl ester, 2-oxopropionic acid tert-butyl ester. […] The relative levels of the expression of specific proteins were analyzed by Western blot analyses of the cell lysates as described supra.

[2] = tested on: cornea; experiment: Mouse corneal wound healing and LPS inflammation model, confocal microscopy of corneal thickness and morphology; assay type: in vivo, Mus musculus strain C57
From the text: (§1) A mouse model of corneal wound healing and inflammation induced by lipopolysacharide (LPS) was used to test the effect of EP. Khatari et al., Invest. Opthalmol. Vis. Sci. (2002) 43:2278-2284. Briefly, mice (Mus musculus strain C57, age approx. 2 months) were obtained from Charles River Laboratories in accordance with institutional protocols and divided into the following treatment groups (with 3 samples in each group):
(§2) Prior to wounding, all mice were anesthetized with an intraperitoneal injection of 50 mg/kg ketamine with 5 mg/kg xylazine. Topical anesthesia was further achieved with an additional 1 drop of 0.5% proparacaine per eye. Once the animal was sufficiently anesthetized, a corneal wound was constructed in each eye using a sterile 26-gauge needle that penetrated the epithelium and the superficial layers of the stroma. This linear scratch extended from the medial to lateral canthus (FIG. 12). 10 μg of the bacterial super-antigen LPS (Pseudomonas aeruginosa lipopolysaccharide, Sigma) was applied to the wound using a 10 μl pipette and allowed to penetrate the cornea for 5 minutes. Addition of bacterial endotoxin ensured a robust inflammatory response.
The wound was then washed with phosphate buffered saline (PBS/non-pyrogenic dH2O). Following the wash, the EP treatment groups received a 10 μl drop of 5% EP in PBS buffered to physiological pH with HEPES while the control group received PBS alone. Drops were applied to the corneal wound using a pipette and the mice were held by hand in such a way as to retain the drops on the eye for approximately 2 minutes. The delivery and concentration of EP was determined according to Devamanoharan et al. (1999); 200(1-2):103-09. […] Considering this quick absorption with the elimination half-life of EP, which is approximately 90 minutes, EP (500 mM) was applied every 90 minutes over the span of 12 hours during each day, followed by 12 hours of treatment overnight.
Animals were sacrificed and eyes harvested for analysis at 1 and 2 days post-wounding. After sacrificing, but prior to harvesting, eyes were imaged using the NIDEK CONFOSCAN 3® confocal microscope to analyze the morphology of the intact cornea. The images were later reconstructed into three-dimensional images in order to observe gross morphology, measure corneal thickness and light scattering which indicate edema and hypercellularity respectively.

[3] = tested on: human corneal stromal cells; experiment: Toxicity to cultured human corneal stromal cells; assay type: cell-based; settings: possibly due to low pH of the culture medium
Method: Higher than 20 mM concentrations were toxic to the cells, possibly due to the low pH of the culture medium resulting from high EP concentrations.

[4] = tested on: CD-45+ leukocytes; experiment: Mouse corneal wound model, FACS with pan-leukocyte marker CD-45+; assay type: in vivo, Mus musculus strain C57
From the text: as §1, §2
The wound was then washed with phosphate buffered saline (PBS/non-pyrogenic dH2O). […] The delivery and concentration of EP was determined according to Devamanoharan et al. (1999); 200(1-2):103-09. […]

[5] = tested on: α-SMA; experiment: Western blot analyses of α-SMA, human corneal stromal cells; assay type: cell-based
Method: FIG. 5. Western blot analyses of α-SMA. Human corneal stromal cells in P2 growing in DMEM/F12 with 10% FBS were subcultured into 60 mm tissue culture dishes. After 24 hrs of incubation, the media were replaced with DMEM/F12 medium containing 1% FBS and TGF-β1 with or without (control) different concentrations of EP as indicated and incubated for two and four days (media were changed every 24 hours). The cells were extracted in RIPA buffer and the extracts containing 5 μg of total proteins were loaded per lane for Western blot analysis.
Keratocytes or fibroblasts grown under different culture conditions were extracted in RIPA buffer (9.1 mM dibasic sodium phosphate, 1.7 mM monobasic sodium phosphate, 150 mM NaCl, pH, 7.4, 1% Nonidet P-40, 0.5% sodium deoxycholate, 0.1% SDS, 0.03 TIU/mL aprotinin, 1 mM sodium orthovanadate, and 100 μg/mL phenylmethylsulfonyl fluoride (PMSF)). Aliquots of cell extracts containing 50 or 100 μg protein were subjected to SDS-PAGE. […] Immunoreactive bands were detected using chemiluminescence Western chemiluminescence reagents. […]

[6] = cited from earlier work
[7] = 1 day post-wounding, topical 5% EP every 90 minutes

## CCOC(=O)C(C)=O [ethyl pyruvate]
[1]
  alpha-smooth muscle actin levels (Western blot): reduced expression; also recorded: reduced levels
[2]; 1 day post-wounding
  light scattering within the stromal layer (qualitative): dark and quiet stroma
[2]; [7]
  stromal thickness: 89-100 μm
  total corneal thickness: 194-207 μm
[2]; 2 days post-wounding
  corneal morphology / light scattering (qualitative): normal in morphology
  stromal thickness: 80-85 μm
  total corneal thickness: 142-154 μm
[3]
  concentrations toxic to the cells: Higher than 20 mM
[4]; day 1 post-wounding
  inflammatory cells (CD-45+) by FACS: 28.50±12.02
[4]; day 2 post-wounding
  inflammatory cells (CD-45+) by FACS: 163.00±57.42
[5]; TGF-β1
  EP concentration with highest downregulation of α-SMA: 20 mM
[5]; two and four days, concentration dependent
  TGF-β1 induced expression of α-SMA (Western blot): down-regulated
[6]; applied on the surface of the eye
  time to diffuse into the aqueous humor: ≤ 15 min
[6]; diffuses through conjunctival tissue or into corneal stroma
  entry into the anterior chamber: within minutes
[6]; in vivo
  elimination half-life: approximately 90 minutes
